In patent US20030065030A1, “Autonomic controlling agents and health drinks and foods” (priority 2001, published 2003):

Test system: 2DG hyperglycemic rats
Experiment: anti-hyperglycemia in the 2DG hyperglycemic rats
Assay type: in vivo, rat
Conditions: 10 ng intracranially administered
Excerpt: Since blood glucose levels are expected to be reduced when the activity of the autonomic nervous system is controlled by carnosine at a low dose, the effect of carnosine on anti-hyperglycemia in the 2DG hyperglycemic rats was investigated according to the method of Chun et al. (Brain Research 809:165-174, 1998). Wistar male rats (initial weight, about 250 g) were used that had been acclimated for at least 10 days to an environment in a room illuminated with an incandescent light of 80 lux on the average for 12 hours at room temperature (24 +/− 1° C.) with free access to the feed.
Three days before the experiment, rats under anesthesia with pentobarbital (35 mg/kg body weight, intraperitoneal administration) received the insertion of a cardiac catheter comprising a silastic tubing (Dow Corning, Midland, Mich.) and a polyethylene tubing (Clay Adams, Parsippany, N.J.) into the right atrium and a polyethylene tubing into the right lateral cerebral ventricle (LCV). On the day of the experiment, carnosine dissolved in physiological saline was administered to the rats intracranially (0.01 ml) or intraperitoneally (0.1 ml) with the simultaneous administration into the rat LCV of 80 μmol 2-deoxy-D-glucose (2DG, 0.01 ml). The control rats received physiological saline instead of carnosine and an artificial cerebrospinal fluid in stead of 2DG, each at the same amount.
Sixty minutes after the administration of 2DG into the LCV, 300 μl of blood was taken via the cardiac catheter and the plasma level of glucose was determined. The glucose concentrations in the plasma were measured using the Fuji-Dri-chem system (Fuji Film Tokyo) according to the glucose oxidase method. Changes in plasma concentrations of glucose were expressed as a ratio (%) relative to the control value at 90 minutes after 2DG administration set at 100. Four or five rats were used in the experiments. Data were tested with ANOVA (p<0.05) and were expressed as mean +/− standard error.

With `Cn1cncc1C[C@H](NC(=O)CCN)C(=O)O` [anserine, reference compound] the effect on hyperglycemia was “did not suppress hyperglycemia”.
